Assay results from patent US7629503B2, “Δ-4 desaturases from Euglena gracilis, expressing plants, and oils containing PUFA” (BASF Plant Science GmbH, priority 2003, dated 2009).

System: Euglena gracilis Δ4-desaturase
Test: Substrate specificity: feeding fatty acids to yeast expressing the Δ-4-desaturase (pYES-EGD4-2), fatty acid analysis by GC
Type: cell-based
Conditions: transformed yeast (saccharomyces strain SC334, pYES-EGD4-2), 100 μM fatty acid substrate (67 μM for 16:1 Δ7), 2% galactose induction, 15° C. for 4 days
Description: Yeasts transformed with the plasmid pYES-EGD4-2 as in Example 4 were analyzed in the following way:
The yeast cells were grown in 1 ml of minimal medium with 0.2% raffinose for two days and then transferred into 5 ml of the same medium. This culture was grown at 30° C. for 6 h until the OD600 was 0.05. Then 100 μM of the fatty acid substrates (67 μM for 16:1 Δ7) were added, and the expression of the Δ-4-desaturase was induced by adding 2% galactose. The cells were then incubated at 15° C. for 4 days, harvested, washed with 100 mM NaHCO3 and employed for the fatty acid analysis by GC.
The substrate specificities were found by feeding the transformed yeast strains with different fatty acids (Tab. 1). Conversion of the fed fatty acids to their Δ4-desaturated products was then determined.

| SMILES | Conversion (in %) of the fed fatty acid to its Δ4-desaturated product |
| --- | --- |
| CCCCCCCC/C=C\CCCCCCCC(=O)O [18:1 Δ9] | Not detectable |
| CC/C=C\C/C=C\C/C=C\CCCCCC(=O)O [16:3 Δ7, 10, 13] | 21.4 (±3.3) % |
| CCCCC/C=C\C/C=C\CCCCCCCC(=O)O [18:2 Δ9, 12] | Not detectable |
| CCCCCCCCCCCCCCCCCC(=O)O [18:0] | Not detectable |
| CCCCCC/C=C\CCCCCCCC(=O)O [16:1 Δ9] | Not detectable |
| CCCCC/C=C\C/C=C\C/C=C\CCCCCCC(=O)O [20:3 Δ8, 11, 14] | Not detectable |
| CCCCC/C=C\C/C=C\C/C=C\CCCCC(=O)O [18:3 Δ6, 9, 12] | Not detectable |
| CCCCCCCCC=CCCCCCC(=O)O [16:1 Δ7] | 7.4 (±0.8) % |
| CC/C=C\C/C=C\C/C=C\C/C=C\C/C=C\CCCCCC(=O)O [22:5 Δ7, 10, 13, 16, 19, docosapentaenoic acid] | 29.7 (±2.8) % |
| CCCCC/C=C\C/C=C\C/C=C\C/C=C\CCCCCC(=O)O [22:4 Δ7, 10, 13, 16] | 28.7 (±2.5) % |
| CCCCCCCCCCCCCCCC(=O)O [16:0] | Not detectable |
